Test results published in US20220098547A1, “HYDROGEL BIOMIMETIC FOR INVASIVE DISEASES” (priority 2018, published 2022).

Tests used:
[1] = system: MMP9; assay: Gelatin zymography of conditioned media (MMP9 secretion), LAM-SMCs; type: cell-based, human; conditions: Y-27632 treatment (10 μM per FIG. 8 legend)
Procedure: After 1 day of culture, conditioned media from 384-well plates was collected from each well for gelatin zymography. 8% polyacrylamide (PA) gels were used, and were prepared as previously described^[22] In general, the separating gel component of the zymography gels comprised 7.5 mL of 1.5 M Tris buffer (pH 8.8), 8.0 mL polyacrylamide solution (30%), 10.2 mL gelatin A (3 mg/mL), 2.7 mL water, 300 μL SDS, 300 μL 10% ammonium persulfate, and 36 μL TEMED. The separating gel was allowed to gel for 40 min at room temperature. The stacking gel was then prepared by mixing 5.0 mL of 0.5 M Tris buffer (pH 6.8), 2.6 mL polyacrylamide solution (30%), 12.2 mL water, 200 μL SDS, 150 μL 10% ammonium persulfate, and 30 μL TEMED. The stacking gel was poured on top of each gel and allowed to sit for 40 mins.
For each sample, 12 μL of conditioned media was mixed with 3 μL loading dye, and 12 μL was loaded into each lane. Running buffer comprising 25 mM Tris, 190 mM glycine and 0.1% SDS was used for gel electrophoresis. Following protein separation on the PA gels, gels were washed in 2.5% Triton X (3 times, 10 min each) to remove residual SDS, followed by DI water (5 times, 30 min each). Gels were then placed in an incubation buffer (50 mM Tris buffer pH 7.5 containing 5 mM CaCl2, 200 mM NaCl) and incubated at 37° C. overnight. […]

[2] = system: TSC2+/− LAM-SMCs; assay: Cell invasion into 3D HA hydrogels, LAM-SMCs; type: cell-based, human; conditions: for invasion, selectivity towards LAM-SMCs vs control SMCs: 80 kinase inhibitor screen, 5 μM, 384-well 3D hydrogel
Procedure: (§1) HA (230 kDa) was functionalized with furfurylamine as previously described^[16] Furanyl-modified HA/MMPx-(maleimide)2 hydrogels were prepared as previously described ^[16] with the following modifications: To prepare 1.0 mL of 0.9% HA hydrogel with 25 μM vitronectin peptide for SMC culture, HA-furanyl (65% furanyl substitution, 9.0 mg HA, 13.3 μmol furanyl) was dissolved in 450 μL of dPBS (adjusted to pH 6.5), and added to 357.7 μL of dPBS (pH 6.5). 150.1 μL of maleimide2-MMP-degradable crosslinker peptide dissolved in 0.1 M MES buffer (pH 5.5, 50 mg/mL, 2.8 μmol of peptide, 5.6 μmol of maleimide) and 3.75 μL of maleimide-vitronectin peptide dissolved in 0.1 M MES buffer (pH 5.5, 12 mg/mL, 25 nmol) were added to the HA-furanyl solution and carefully mixed to prevent the formation of air bubbles. 38.5 μL of a thiolated methyl cellulose solution (2.6 mg/mL MC-SH in DI H2O, 100 nmolfree thiols/mgMC) was then added to this solution and mixed carefully with a pipette. Hydrogel formulations were tuned for lung cancer cells. For culturing primary cells from lung cancer tissue biopsies, 100 μM vitronectin peptides were used. For NCI-H1299, NCI-H446 and human bronchial epithelial cells, 100 μM vitronectin peptides and 100 μM fibronectin peptides were used. To prepare gels in 384-well plates, 15 μL of the hydrogel solutions were added to each well in a 384-well plate and placed in the incubator overnight at 37° C.
(§2) Excess sterile water was then added to wells lining the outside of the plates to prevent hydrogel evaporation. […] Gels were then equilibrated with either RPMI-1640 containing 1% FBS (for lung cancer cells) or M231 SMC media (75 μL, >45 mins). Media was then removed, and for SMC culture, 15 μL of M231 supplemented with 25% SMGS (containing a final FBS concentration of 1%) was added into each well for at least 1 h prior to cell seeding. For drug treatment assays, this 15 μL volume of M231 with 25% SMGS also includes a 5× concentration of the desired drug. For larger drug screening assays, Y-27632 (Rock inhibitor, 10 μM) was used as a negative control for cell invasion, and verteporfin (1 μM) was used as a positive control for cell toxicity (SyTox Green staining). For lung cancer cell culture, cells in RPMI media containing 1% FBS was added to each well.
(§3) SMCs were cultured according to reported protocols.^[12a] In brief, cells were cultured in M231 media with Smooth Muscle Growth Supplement (SMGS) and gentamycin (ThermoFisher Scientific) at 37° C. with 5% CO2. Cells were passaged using 0.05% trypsin/EDTA for 3 min at 37° C., and inhibited using M231 media. 3000 cells in 45 μL of M231 without SMGS were added to each well of a 384-well plate containing 3D HA hydrogels.
(§4) After 5 days of culture in 3D HA gels, 30 μL media was carefully removed. To each well, 20 μL of a solution containing SyTox Green (1/50,000) in PBS was added and incubated for 1.5 h at 37° C. Gels were then carefully washed with PBS twice. Cells were then fixed with 4% PFA for 1.5 h in the dark at room temperature. PFA was removed and gels were washed with PBS. A solution of Hoechst (1/1000, 20 μL) was then added to each well for at least 1.5 h in the dark, followed by washing with PBS (3 times). To label the gel surface, fluorescent microspheres (100 nm, orange, Phosphorex) were diluted in PBS (1/100) and centrifuged to separate larger, aggregated microspheres. 20 μL of the resulting supernatant were then added to each well and the 384-well plate was left undisturbed overnight. For drug screening experiments involving treatment with 80 drugs simultaneously, silica gel particles (40-63 μm, 230-400 mesh, SiliCycle) were used to label the […]. A slurry solution (5 mg/mL) of silica gel particles in PBS containing 0.01% sodium azide was mixed and immediately added to each well. Particles settled after 20 seconds and plates could be immediately imaged.
(§5) Z-stacked images were obtained using a Cellomics high content imaging instrument as described above. […]

[3] = system: TSC2+/+ control SMCs; assay: Cell invasion into 3D HA hydrogels, control SMCs; type: cell-based, human; conditions: Y-27632 treatment (10 μM per FIG. 8 legend)
Procedure: as §1, with “To prepare gels in 384-well plates, 15 μL of the hydrogel solutions were added to each well in a 384-well plate and placed in the incubator overnight at 37° C.” left out

[4] = system: TSC2+/− LAM-SMCs; assay: Cell viability (SyTox Green), LAM-SMCs; type: cell-based, human; conditions: for cell viability, selectivity towards LAM-SMCs vs control SMCs: 80 kinase inhibitor screen, 5 μM, 384-well 3D hydrogel
Procedure: as §1, §2, §3, §4, §5

[5] = system: VEGF-A; conditions: some glioblastoma patients; cited from earlier work
VEGF-A, sequence (P15692 207-311 limits assumed): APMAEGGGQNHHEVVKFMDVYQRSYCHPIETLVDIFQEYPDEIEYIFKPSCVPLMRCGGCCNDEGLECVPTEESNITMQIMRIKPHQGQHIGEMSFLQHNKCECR

| Molecule | invasion, selectivity towards LAM-SMCs vs control SMCs [2] | cell viability, selectivity towards LAM-SMCs vs control SMCs [4] | further results |
| --- | --- | --- | --- |
| C[C@@H](N)[C@H]1CC[C@H](C(=O)Nc2ccncc2)CC1 [Y-27632] |  |  | MMP9 secretion levels [1]: neither cell viability nor MMP9 secretion levels of LAM-SMCs were affected; cell invasion ([2]; Y-27632 treatment (10 μM per FIG. 8 legend), LAM-SMCs): significantly decreased cell invasion; cell invasion [3]: significantly decreased cell invasion; cell viability ([4]; Y-27632 treatment (10 μM per FIG. 8 legend), LAM-SMCs, 3D HA gels): neither cell viability nor MMP9 secretion levels of LAM-SMCs were affected |
| Cc1cc(Nc2cc(N3CCN(C)CC3)nc(/C=C/c3ccccc3)n2)n[nH]1 [ENMD-2076] | selective decrease | selective decrease |  |
| CNC(=O)[C@H](Cc1c[nH]c2ccccc12)NC(=O)[C@@H](CC(=O)NO)CC(C)C [GM6001] |  |  | cell invasion ([2]; 10 μM, invasive LAM-SMCs, 3D hydrogels): modest, yet statistically significant decrease in cell invasion |
| CN1CCC(c2c(O)cc(O)c3c(=O)cc(-c4ccccc4Cl)oc23)C1CO (single isomer, unassigned; (+)) [(+)-P276] | selective decrease | selective decrease |  |
| CC(C)CC(=O)Nc1[nH]nc2c1CN(C(=O)C1CCN(C)CC1)C2(C)C [PHA-793887] | selective decrease | selective decrease |  |
| bevacizumab |  |  | tumor metastasis [5]: increased tumor metastasis; tumor size [5]: decreased tumor sizes |
| Nc1nc(Nc2ccc(S(N)(=O)=O)cc2)nn1C(=S)Nc1c(F)cccc1F [Cdk1/2 inhibitor] | selective decrease | selective decrease |  |
| TC-A 2317 NCI | selective decrease | selective decrease |  |
| Cc1ncc(-c2ccnc(Nc3ccc(S(C)(=O)=O)cc3)n2)n1C(C)C [AZD5438] | selective decrease | selective decrease |  |
